SMILES strings stand for the structures.

`CC(C)=CCCOc1c(-c2ccc(S(N)(=O)=O)cc2)cnn(-c2ccc(F)c(F)c2)c1=O` gave a melting point of 70 to 73 °C.

Compound `O=C(O)Cc1nc(-c2ccc(F)cc2)oc1-c1ccoc1` yielded a melting point of 208 to 209 °C.

`CCOC(=O)C(=Cc1cccn2cc(-c3ccccc3)nc12)N=[N+]=[N-]` displayed a melting point of 136 to 138 °C.

The compound `CC(C)c1nc(C(C)C)c(CCc2ccccc2)c(-c2ccc(F)cc2)c1CO` displayed a melting point of 158 to 159 °C.

The compound `CNC(=O)CN1CCc2cc(Nc3ncc(Cl)c(Nc4ccc(N5CCOCC5)cc4OC)n3)c(OC)cc2CC1` gave a melting point of 113 to 130 °C.

In the case of `NC(=O)c1cc2ccccc2[nH]1`, the melting point was in the range of 231 to 232 °C.

Take `CC(C)(C)OC(=O)NNC(=O)N1CCC(Br)C1=O` (stereo not drawn): the melting point was 122 to 123 °C.

`CC(=O)c1ccc2c(c1)Cc1ccc(C(C)=O)cc1-2` came in with a melting point of 155 °C.

In turn, `O=C1Nc2cc(F)ccc2C1c1ncnc2nn(C3CCCC3)cc12` (stereo not drawn) registered a melting point of 258 to 263 °C.

Take `CC1=CC2(C)CC3CCCC(C)(C2=O)C13` (stereo not drawn): the melting point fell in the range of 46 to 47 °C.

As for `O=C1Nc2ccc(Cl)cc2C1(c1ccccc1)c1ccccc1`, the melting point came out at 281 °C.

`CCN1C(=O)c2cnc(-c3ccccc3)nc2N(C(=O)CN(C(C)C)C(C)C)c2ccccc21` had a melting point of 120 to 121 °C.

`CCOC(=O)c1nn(-c2ccc(Cl)cc2Cl)c(-c2ccc(Br)cc2)c1C` registered a melting point of 133 °C.

Compound `C=CCN1CC(C)N(C(c2cccc(O)c2)c2cc(C(=O)N(CC)CC)cs2)CC1C` (stereo not drawn) displayed a melting point of 108 to 112 °C.

`COC(=O)NC=Cc1ccc(O)cc1` had a melting point of 169 to 170 °C.

`O=C1Nc2cccnc2N(C(=O)CN2CCN(CCO)CC2)c2ccccc21` gave a melting point of 197 to 200 °C.

Compound `NC(=O)C1CCCCc2cc3c(nc21)CCCCC3` (stereo not drawn) yielded a melting point of 179 °C.

For the compound `O=C(O)CC1=CCCCC1n1nc(-c2c(-c3ccccc3)nn3ccccc23)ccc1=O` (stereo not drawn), the melting point lay within 164 to 166 °C.

`NC(=O)c1cc(Br)c(O)c(Br)n1` came in with a melting point of 261 to 266 °C.

Compound `O=C(C=CCc1c[nH]c2ccccc12)NC(C(=O)OCc1ccccc1)C(=O)OCc1ccccc1` yielded a melting point of 162 to 163 °C.

As for `CC1=C(c2ccc(O)cc2)C(=O)c2cc(O)c(O)cc21`, the melting point is 226 to 229 °C.

`Cn1cnc(COc2nn3c(-c4ccccc4)nnc3cc2N2CCOCC2)n1` displayed a melting point of 205 to 206 °C.

Consider `Cc1ccc(Br)c(C)c1C#N`, for which the melting point turned out to be 60 °C.

In turn, `S=C=NCc1cc(-c2ccc(Cl)cc2)no1` yielded a melting point of 74 to 76 °C.

As for `CC(CO)NC(=O)c1ccc(CN(C2CCCCC2F)S(=O)(=O)c2ccc(Cl)cc2)c(F)c1F` (stereo not drawn), the melting point was in the range of 126 to 128 °C.

In turn, `Cc1ccccc1-c1nc2c(o1)C(=O)c1ccccc1C2=O` yielded a melting point of 212 °C.

The compound `CCOC(=O)c1cc(NC(=O)C(CSC(C)=O)Cc2ccc(Cl)cc2)c[nH]1` (stereo not drawn) displayed a melting point of 141 to 144 °C.

`CSC(Oc1cc(I)c2ncc(Br)cc2c1)C(=O)NC(C)(C)C` (stereo not drawn) gave a melting point of 171 to 172 °C.

For the compound `CC(=O)N1CCN(c2ccc(N=CNc3cc(Cl)cc(C(=Cc4ccccc4Cl)C(N)=O)c3)cc2)CC1`, the melting point was in the range of 259 to 260 °C.

With `CCCn1c(C(=O)OC)cc(=O)c2oc3ccc(Cl)cc3c(=O)c21`, the melting point fell in the range of 240 to 244 °C.

Regarding `O=C(O)CCCc1cc2nc(Cl)ccc2n1S(=O)(=O)c1ccc(-c2cnco2)cc1`, the melting point lay within 169 to 176 °C.

Take `O=C(NCSc1ncnc2nc[nH]c12)c1ccccc1`: the melting point lay in the range of 197 to 200 °C.

`CCc1nnc(SCC2=C(C(=O)O)N3C(=O)C(NC(=O)Cc4csc(=O)s4)C3SC2)s1` (stereo not drawn) yielded a melting point of 155 °C.

Compound `CCN1CCCOc2ccc(Nc3ncc(Cl)c(Nc4ccsc4C(=O)NC)n3)cc21` displayed a melting point of 153 to 155 °C.

In turn, `NC(=O)CC[C@H]1CC[C@@H](c2ccc(F)cc2)N1S(=O)(=O)c1ccc(Cl)cc1` (racemic) returned a melting point of 114 °C.

Consider `c1csc(-c2n[nH]c3c2Cc2cc(CN4CCOCC4)ccc2-3)c1`, for which the melting point is 178 to 179 °C.

Consider `C[Si](C)(C)C#Cc1cc(Cl)cnc1N`, for which the melting point is 108 °C.

`CCC(N)=C(C(C)=O)c1[nH]c2ccccc2c1C(O)CN(C)C` (stereo not drawn) yielded a melting point of 90 to 104 °C.

With `CCC(NC(=O)C(F)F)c1ccc(Cl)c2nc3n(c12)CCCN3c1c(Cl)cc(Cl)cc1Cl` (stereo not drawn), the melting point was in the range of 211 to 213 °C.

On to `CCCN1CCC(O)(c2cccc(F)c2F)C1` (single isomer, unassigned; (-)), for which the melting point is 95 to 98 °C.

With `CNC(=O)Cc1c(-c2ccccc2)nc2n(C)c3ccc(C)cc3n12`, the melting point fell in the range of 251 to 253 °C.

`Cn1ccc2cc(NC(=O)CC34CC5CC(CC(C5)C3)C4)ccc21` registered a melting point of 183 to 184 °C.

Turning to `CCCCC(C(=O)N[C@H]1CN2CCC1CC2)c1ccccc1` (stereo partly drawn), the melting point came to 136 °C.

`O=C1c2ccccc2S(=O)(=O)N1Cn1nnn(-c2ccccc2)c1=S` returned a melting point of 140 to 142 °C.

The compound `CC(C#N)=C1CCN(c2ccc(N3C[C@H](CNC(=O)C(Cl)(Cl)Cl)OC3=O)cc2F)CC1` showed a melting point of 166 to 168 °C.

Compound `CCn1cc(C(=O)O)c(=O)c2cc(F)c(N3CCNC(CN(C)C)C3)cc21` (stereo not drawn) came in with a melting point of 148 to 150 °C.

Turning to `COc1cc(OS(C)(=O)=O)ccc1C1=NC2=NCC(=O)NC2=N1`, the melting point is > 260 °C.

In the case of `COc1ccc(C(CC(=O)O)N2C(=O)c3ccccc3C2=O)cc1` (stereo not drawn), the melting point is 160 to 164 °C.

On to `O=C(Nc1cccnc1)c1cc2ccnc(Cl)c2[nH]1`, for which the melting point is > 320 °C.

Regarding `C=CCn1c(C)c(C)c2cnnc(SCc3ccc(Cl)cc3)c21`, the melting point fell in the range of 107 to 108 °C.

Turning to `CN1Cc2c(C(N)=O)ncn2-c2cccc(Br)c2C1=O`, the melting point is 278 to 279 °C.

Take `Cc1oc(-c2ccccc2)nc1CC=Cc1ccc(CC2SC(=O)NC2=O)cc1` (stereo not drawn): the melting point is 55 to 57 °C.

Take `CCCc1cccnc1N(C)C1CCN(C(=O)c2ccc[nH]2)CC1`: the melting point was 88 to 90 °C.

Compound `CCOC(=O)CSc1ncnc2c(O)n(C(C)(C)C)nc12` returned a melting point of 129 to 131 °C.

`O=C(Nc1cccc(I)c1)C1CC1` yielded a melting point of 112 °C.

For the compound `COC(=O)C(=O)c1ccc(OCCOc2ccc(OC)c(OC)c2)cc1`, the melting point lay in the range of 93 to 94 °C.

As to `COc1cc(OCC(O)CN2CCN(c3ccccc3NC(C)=O)CC2)cc(OC)c1OC` (stereo not drawn), the melting point was 128 to 130 °C.

Turning to `O=C1c2ccccc2C(=O)c2c1ccc1[nH]c(=O)c(=O)[nH]c21`, the melting point is 245 to 246 °C.

`NNc1c(Cl)cc(C(F)(F)F)c(F)c1Cl` returned a melting point of 50 to 51 °C.

Compound `CC(=O)OCc1cc(C)cc(Oc2nc(Cl)nc(Cl)c2C(C)C)c1` yielded a melting point of 76 to 77 °C.

Take `COC(=O)c1sc2c(c1O)CCCC2`: the melting point is 55 to 58 °C.

As for `CC1(C)CCCC=C1c1ccc(C(=O)N2Cc3cccn3Cc3ccccc32)cc1`, the melting point was 118 °C.

`CC1(C)C(=O)N(c2ccc([N+](=O)[O-])c(C(F)(F)F)c2)C(=O)N1CCCCCN1C(=O)N(c2ccc([N+](=O)[O-])c(C(F)(F)F)c2)C(=O)C1(C)C` had a melting point of 163 to 164 °C.
